In ChEMBL document CHEMBL1201862, “PubChem BioAssay data set” (2004):
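Values below derive from 48-hour exposures of cells grown in 96-well plates, with endpoints linearly interpolated between the two concentrations bracketing the appropriate inhibition level. GI50 = concentration required for 50% inhibition of growth.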 Calls of active or inactive are those of the source. Cut-off read from the data, not from the text of the source: active = GI50 up to about 1.1 µM and inactive = higher.

Legend:
Experiment in all cases: NCI-60 cell line screen, 48 h
[1] = test system: 786-0
[2] = test system: A549
[3] = test system: HCC 2998
[4] = test system: HCT-15
[5] = test system: HT-29
[6] = test system: KM12
[7] = test system: MOLT-4
[8] = test system: Malme-3M
[9] = test system: RPMI-8226
[10] = test system: SK-MEL-2
[11] = test system: SK-MEL-5
[12] = test system: SN12C
[13] = test system: SW-620
[14] = test system: U-251
[15] = test system: UACC-257

| SMILES | GI50 [1] | GI50 [2] | GI50 [3] | GI50 [4] | GI50 [5] | GI50 [6] | GI50 [7] | GI50 [8] | GI50 [9] | GI50 [10] | GI50 [11] | GI50 [12] | GI50 [13] | GI50 [14] | GI50 [15] |
| --- | --- | --- | --- | --- | --- | --- | --- | --- | --- | --- | --- | --- | --- | --- | --- |
| CN(C(=O)C12C3C4C5C3C1(C(=O)O)C5C42)C(C)(C)C (stereo not given) | > 100 µM (inactive) | 42.2 µM (inactive) | > 100 µM (inactive) | 33.2 µM | 78.5 µM (inactive) | > 100 µM (inactive) | > 100 µM (inactive) | > 100 µM (inactive) | 52 µM (inactive) | > 100 µM (inactive) | > 100 µM (inactive) | > 100 µM (inactive) | 23.9 µM (inactive) | > 100 µM (inactive) | > 100 µM (inactive) |
| O=c1c(-c2ccccc2)c2oc(c1-c1ccccc1)CSCc1cccc(c1)CSC2 | 27.5 µM (inactive) | 38.5 µM (inactive) | 94.6 µM (inactive) | > 100 µM | 51.9 µM (inactive) | 60.3 µM (inactive) | > 100 µM (inactive) | 45.5 µM (inactive) | 27.9 µM (inactive) | > 100 µM (inactive) | 54.2 µM (inactive) | 49.1 µM (inactive) | 30.3 µM (inactive) | 31 µM (inactive) | > 100 µM (inactive) |
| C[n+]1c2ccccc2c(CNCC(=O)O)c2ccccc21 | 1.17 µM (inactive) | 3.76 µM (inactive) | 5.92 µM (inactive) | 0.805 µM | 0.711 µM (active) | 0.452 µM (active) | 0.223 µM (active) | 11.9 µM (inactive) | 0.29 µM (active) | 2.43 µM (inactive) | 3.98 µM (inactive) | 0.562 µM (active) | 0.571 µM (active) | 3.62 µM (inactive) | 10.9 µM (inactive) |
| COc1cccc(C2C(C(=O)Nc3cc(=O)n(C)c(=O)n3C)=C(C)NC(C)=C2C(=O)Nc2cc(=O)n(C)c(=O)n2C)c1O | > 100 µM (inactive) | > 100 µM (inactive) | > 100 µM (inactive) |  | > 100 µM (inactive) | > 100 µM (inactive) | > 100 µM (inactive) | > 100 µM (inactive) | 66.1 µM (inactive) | > 100 µM (inactive) | > 100 µM (inactive) | > 100 µM (inactive) | > 100 µM (inactive) | > 100 µM (inactive) | > 100 µM (inactive) |
| Cc1ccc(S(=O)(=O)C2CC2(Cl)Cl)cc1 (stereo not given) | 20.7 µM (inactive) | > 100 µM (inactive) | 44.4 µM (inactive) | 23.4 µM | 18.8 µM (inactive) | 66.2 µM (inactive) | 13.9 µM (inactive) | 19.6 µM (inactive) |  | 33.2 µM (inactive) |  | 18.7 µM (inactive) | 22.3 µM (inactive) | > 100 µM (inactive) | 21.2 µM (inactive) |
| NC1=NCC(c2ccccn2)C1c1ccc(F)cc1 (stereo not given) | > 100 µM (inactive) | > 100 µM (inactive) | > 100 µM (inactive) |  | > 100 µM (inactive) | > 100 µM (inactive) | > 100 µM (inactive) | > 100 µM (inactive) | > 100 µM (inactive) | > 100 µM (inactive) | > 100 µM (inactive) | > 100 µM (inactive) | > 100 µM (inactive) | > 100 µM (inactive) | > 100 µM (inactive) |
| Cc1ccc(S(=O)(=O)NC2(C=O)CCC(C(C)(C)C)CC2)cc1 (stereo not given) | 37.9 µM (inactive) | 35.1 µM (inactive) | 36.9 µM (inactive) | 32.6 µM | 32.1 µM (inactive) | 27 µM (inactive) | 16.5 µM (inactive) | 35.2 µM (inactive) | 19.1 µM (inactive) | 44.6 µM (inactive) | 21.9 µM (inactive) | 26.1 µM (inactive) | 70.3 µM (inactive) | 34.3 µM (inactive) | 34.9 µM (inactive) |
| N#CC1=C(c2ccccc2)OC2(N)OC(c3ccccc3)=C(C#N)C12C#N (stereo not given) | > 100 µM (inactive) | > 100 µM (inactive) | > 100 µM (inactive) | > 100 µM | > 100 µM (inactive) | > 100 µM (inactive) | > 100 µM (inactive) | > 100 µM (inactive) | 39.4 µM (inactive) | > 100 µM (inactive) | > 100 µM (inactive) | > 100 µM (inactive) | > 100 µM (inactive) | > 100 µM (inactive) | > 100 µM (inactive) |
| COc1nc2c(c(O)c(C)c(=O)n2OC2OCC(OC(C)=O)C(OC(C)=O)C2OC(C)=O)c(=O)n1C (stereo not given) | > 100 µM (inactive) | > 100 µM (inactive) | > 100 µM (inactive) | > 100 µM | > 100 µM (inactive) | > 100 µM (inactive) | > 100 µM (inactive) |  |  | > 100 µM (inactive) | > 100 µM (inactive) | > 100 µM (inactive) | > 100 µM (inactive) | > 100 µM (inactive) |  |
| C[N+](C)(C)CC(=O)N/N=C(/C=C/c1ccccc1)CC1OC(=O)c2ccccc21 (stereo not given) | > 100 µM (inactive) | > 100 µM (inactive) | > 100 µM (inactive) | > 100 µM | > 10 µM (inactive) | > 100 µM (inactive) | > 100 µM (inactive) | > 100 µM (inactive) | > 100 µM (inactive) | > 100 µM (inactive) | > 100 µM (inactive) | > 100 µM (inactive) | > 100 µM (inactive) | > 100 µM (inactive) | > 100 µM (inactive) |
| O=c1[nH]cc(F)c(=O)n1C1OC(CO)C(O)C1O (stereo not given) | > 100 µM (inactive) | > 100 µM (inactive) | > 100 µM (inactive) | > 100 µM | > 100 µM (inactive) | > 100 µM (inactive) | > 100 µM (inactive) | > 100 µM (inactive) | > 100 µM (inactive) | > 100 µM (inactive) | > 100 µM (inactive) | > 100 µM (inactive) | > 100 µM (inactive) | > 100 µM (inactive) | > 100 µM (inactive) |
| CCOc1ccc2c(c1)[n+]([O-])c(C(N)=O)c(N)[n+]2[O-] | > 100 µM (inactive) | > 100 µM (inactive) |  |  | > 100 µM (inactive) | > 100 µM (inactive) | > 100 µM (inactive) | > 100 µM (inactive) |  | > 100 µM (inactive) | > 100 µM (inactive) | > 100 µM (inactive) | > 100 µM (inactive) | > 100 µM (inactive) | > 100 µM (inactive) |
| O=C(O)/C(Cl)=C(\Cl)Nc1cccc(C(F)(F)F)c1 | > 100 µM (inactive) | > 100 µM (inactive) | > 100 µM (inactive) | > 100 µM | > 100 µM (inactive) |  |  | > 100 µM (inactive) |  |  |  | > 100 µM (inactive) | > 100 µM (inactive) | > 100 µM (inactive) |  |
| CCCC(S(=O)(=O)c1ccccc1)S(=O)(=O)c1ccccc1 | > 100 µM (inactive) | > 100 µM (inactive) | > 100 µM (inactive) | > 100 µM | > 100 µM (inactive) | > 100 µM (inactive) | > 100 µM (inactive) | > 100 µM (inactive) | > 100 µM (inactive) | > 100 µM (inactive) | > 100 µM (inactive) |  | > 100 µM (inactive) | > 100 µM (inactive) | > 100 µM (inactive) |
| COC(=O)CCC(=O)CC(=O)C(=O)Nc1c(Cl)cc([N+](=O)[O-])cc1Cl | > 100 µM (inactive) | > 100 µM (inactive) | > 100 µM (inactive) | 55.6 µM | > 100 µM (inactive) | > 100 µM (inactive) | > 100 µM (inactive) | > 100 µM (inactive) | 33.4 µM (inactive) | > 100 µM (inactive) | > 100 µM (inactive) | > 100 µM (inactive) |  | > 100 µM (inactive) | > 100 µM (inactive) |
| Nc1nc2c(ncn2CCCC(c2ccccc2)P(=O)(O)O)c(=O)[nH]1 (stereo not given) | > 100 µM (inactive) | > 100 µM (inactive) | > 100 µM (inactive) | > 100 µM | > 100 µM (inactive) | > 100 µM (inactive) | > 100 µM (inactive) | > 100 µM (inactive) | > 100 µM (inactive) | > 100 µM (inactive) | > 100 µM (inactive) | > 100 µM (inactive) | > 100 µM (inactive) | > 100 µM (inactive) | > 100 µM (inactive) |
| O=C1C(N2C(=O)c3ccccc3C2=O)CN1C(COCc1ccccc1)c1ccc(OCc2ccccc2)cc1 (stereo not given) | > 100 µM (inactive) | > 100 µM (inactive) | > 100 µM (inactive) | > 100 µM | > 100 µM (inactive) | > 100 µM (inactive) | > 100 µM (inactive) | > 100 µM (inactive) | > 100 µM (inactive) |  | > 100 µM (inactive) | > 100 µM (inactive) | > 100 µM (inactive) | > 100 µM (inactive) | > 100 µM (inactive) |
| COc1ccc(-c2nc3c(nc2-c2ccc(OC)cc2)N(C)S(=O)(=O)N=C3N)cc1 | 16.9 µM (inactive) | 27 µM (inactive) | 35.6 µM (inactive) | 32.4 µM | 25.4 µM (inactive) | 22.8 µM (inactive) | 11.9 µM (inactive) | 22.7 µM (inactive) | 10.6 µM (inactive) | 20.5 µM (inactive) | 11.6 µM (inactive) | 41 µM (inactive) | 28.8 µM (inactive) | 26.1 µM (inactive) |  |
| COc1c(OC2OC(CO)C(O)C(O)C2O)cc2c(c1OC)-c1ccc(OC)c(=O)cc1[C@@H](NC(C)=O)CC2 (stereo not given in full) | > 100 µM (inactive) | > 100 µM (inactive) | > 93.3 µM (inactive) | > 100 µM | > 100 µM (inactive) | 92.7 µM (inactive) | > 100 µM (inactive) | 61.5 µM (inactive) | > 82.2 µM (inactive) | 35.1 µM (inactive) | 35.2 µM (inactive) | > 91 µM (inactive) | > 81.8 µM (inactive) | > 100 µM (inactive) | > 84.5 µM (inactive) |
